Measured values: patent US12139458B2, “(2,5-dioxopyrrolidin-1-yl)(phenyl)-acetamide derivatives and their use in the treatment of neurological diseases” (UNIWERSYTET JAGIELLONSKI, priority 2019, dated 2024)

Experiments:
[1] = tested on: voltage-dependent sodium channels in the prefrontal cortex pyramidal neurons; experiment: In vitro electrophysiological study of sodium currents; assay type: cell-based, Rats
Description: The experiments were carried out in accordance with institutional and international guidelines regarding the ethics of animal research. Rats (3 weeks old) were anesthetized with ethyl chloride and decapitated. The brains were then removed and placed in ice-cold extracellular fluid. The methodology of slice preparation and pre-incubation has been described earlier (Szulczyk, B.; Nurowska, E. Biochem. Biophys. Res. Commun. 2017, 491, 291-295). The sections containing the prefrontal cortex were enzymatically and mechanically dispersed. Single prefrontal cortex pyramidal neurons were visualized using an inverted microscope (Nikon). Sodium currents were induced by rectangular depolarizing stimuli. The potential between depolarizing stimuli was maintained at −65 mV. […]
The extracellular fluid washing the neurons contained (in mM): NaCl (30), choline chloride (90), TEA-Cl (30), CaCl2 (2), MgCl2 (2), glucose (15), HEPES (10), LaCl3 (0.001) and CdCl2 (0.4) (pH 7.4). Currents were recorded using an Axopatch 1D amplifier and analyzed using pClamp software (Axon Instruments and Molecular Devices, USA). […]
The patch membrane was ruptured by suction or by an electrical stimulus, and then membrane capacitance was compensated. […] The leakage current was subtracted from the recorded currents. […]

P-glycoprotein (Pgp) = biological target: T1, P-glycoprotein (Pgp) (Homo sapiens, UniProt P08183); experiment: Pgp-Glo Assay System (Pgp activity); assay type: in vitro ADME
T1 construct: purchased Promega (Madison, WI, USA)
Description: Impact on Pgp activity. P-glycoprotein (Pgp) is an integral plasma membrane protein that, as an ATP-dependent […] pump, actively removes xenobiotics and can cause drug interactions. Pgp plays an important role in the absorption of drugs in the gastrointestinal tract and also through the blood-brain barrier. A commercial bioluminescent Pgp-Glo™ Assay System test (Promega, Madison, WI, USA) was used to study the effect of compound 6 on Pgp activity. The operation of the test is based on measuring changes in the level of ATP consumed by membranes containing the recombinant Pgp protein in the presence of test compounds. The results were presented as % of baseline activity and compared to reference compounds: selective Pgp inhibitor Na3VO4 and verapamil stimulator.
Impact on Pgp activity—methodology. The tests were performed according to the protocol of the bioluminescent Pgp-Glo™ Assay System test provided by the Promega company (Madison, WI, USA). […] Bioluminescence was measured with a PerkinElmer multispecific EnSpire plate reader (Waltham, MA USA). […] The calculated difference between the luminescence values of the inhibitor-treated sample and the control sample was taken as 100% of the Pgp base activity and treated as a negative control in the test. […] Statistical significance was calculated by one-way ANOVA variance analysis and the Bonferroni method using GraphPad Prism 5. […]

T1 sequence (P08183 whole entry): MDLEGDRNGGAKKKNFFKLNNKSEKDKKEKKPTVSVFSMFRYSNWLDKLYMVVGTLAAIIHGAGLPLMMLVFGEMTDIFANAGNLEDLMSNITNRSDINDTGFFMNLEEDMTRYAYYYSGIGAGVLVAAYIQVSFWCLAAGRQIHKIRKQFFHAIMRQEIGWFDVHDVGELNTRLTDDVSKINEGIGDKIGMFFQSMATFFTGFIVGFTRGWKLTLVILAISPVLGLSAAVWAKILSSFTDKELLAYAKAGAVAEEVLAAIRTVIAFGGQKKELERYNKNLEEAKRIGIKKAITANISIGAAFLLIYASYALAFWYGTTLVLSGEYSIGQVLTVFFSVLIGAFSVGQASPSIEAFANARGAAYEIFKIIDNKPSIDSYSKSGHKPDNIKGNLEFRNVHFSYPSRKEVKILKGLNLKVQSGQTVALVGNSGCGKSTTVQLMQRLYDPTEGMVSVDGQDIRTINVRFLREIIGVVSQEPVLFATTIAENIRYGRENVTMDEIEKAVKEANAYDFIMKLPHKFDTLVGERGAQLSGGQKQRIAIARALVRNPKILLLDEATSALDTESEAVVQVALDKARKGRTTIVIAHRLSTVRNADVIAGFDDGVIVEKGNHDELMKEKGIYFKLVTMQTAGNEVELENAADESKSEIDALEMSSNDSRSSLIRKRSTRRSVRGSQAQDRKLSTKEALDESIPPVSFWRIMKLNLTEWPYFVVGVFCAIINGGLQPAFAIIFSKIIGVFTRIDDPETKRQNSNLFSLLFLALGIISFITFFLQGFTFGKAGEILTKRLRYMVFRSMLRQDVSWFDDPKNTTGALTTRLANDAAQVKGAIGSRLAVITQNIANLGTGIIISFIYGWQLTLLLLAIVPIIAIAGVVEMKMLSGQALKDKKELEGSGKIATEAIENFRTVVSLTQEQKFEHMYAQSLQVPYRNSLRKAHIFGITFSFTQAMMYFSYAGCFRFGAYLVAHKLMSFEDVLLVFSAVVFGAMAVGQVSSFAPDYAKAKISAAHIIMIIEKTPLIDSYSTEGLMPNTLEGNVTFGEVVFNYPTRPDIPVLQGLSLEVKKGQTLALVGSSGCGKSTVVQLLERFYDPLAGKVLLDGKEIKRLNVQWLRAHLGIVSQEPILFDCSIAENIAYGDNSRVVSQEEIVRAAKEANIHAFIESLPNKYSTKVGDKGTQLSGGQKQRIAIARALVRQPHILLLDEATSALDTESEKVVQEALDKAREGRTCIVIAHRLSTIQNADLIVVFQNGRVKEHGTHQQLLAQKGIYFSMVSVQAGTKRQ

With `O=C(C(c1ccccc1)N1C(=O)CCC1=O)N1CCN(c2cccc(C(F)(F)F)c2)CC1` (racemic) [Compound 6, 1-(2-Oxo-1-phenyl-2-(4-(3-(trifluoromethyl)phenyl)piperazin-1-yl)ethyl)pyrrolidine-2,5-dione] the “maximum amplitude of sodium currents normalized to control (1.0)” value ([1]; 100 μM, in the presence of the compound, holding -65 mV) was 0.59±0.08, the “sodium current amplitude normalized to control after washing out” value ([1]; after wash-out of 100 μM, n=5) was 0.79±0.07 and the “effect on Pgp activity” value (P-glycoprotein (Pgp); 50 μM) was “no effect on Pgp activity”. The “Pgp activity, % of baseline activity” value (P-glycoprotein (Pgp); 100 μM, inhibitory effect, p<0.01) was 38%.
